Experiments:
Assay in all cases: relative viability (nuclei count vs DMSO), 5 days (fraction); higher = more cells survive
[1] = compound: CN(C)C[C@@H]1CCn2cc(c3ccccc32)C2=C(C(=O)NC2=O)c2cn(c3ccccc23)CCO1 [Ruboxistaurin] + CS(=O)(=O)CCNCc1ccc(-c2ccc3ncnc(Nc4ccc(OCc5cccc(F)c5)c(Cl)c4)c3c2)o1 [Lapatinib] (partner 2 µM)
Method in brief: (§1)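 Relative viability is defined as nuclei in treated wells over nuclei in vehicle wells. Duplicate plates were run and medians reported. Lung cancer cell lines in 1536-well plates were dosed by pin tool one day after seeding, with one drug or with a fixed anchor-drug dose plus five library-drug doses (not always all listed) in √10 steps, and nuclei were counted after 5 days.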

[2] = compound: CN(C)C[C@@H]1CCn2cc(c3ccccc32)C2=C(C(=O)NC2=O)c2cn(c3ccccc23)CCO1 [Ruboxistaurin] + CS(=O)(=O)N1CCN(Cc2cc3nc(-c4cccc5[nH]ncc45)nc(N4CCOCC4)c3s2)CC1 [Pictilisib] (partner 1 µM)
Method in brief: as §1

[3] = compound: CN(C)C[C@@H]1CCn2cc(c3ccccc32)C2=C(C(=O)NC2=O)c2cn(c3ccccc23)CCO1 [Ruboxistaurin] + CCNC(=O)c1noc(-c2cc(C(C)C)c(O)cc2O)c1-c1ccc(CN2CCOCC2)cc1 [Luminespib] (partner 0.01 µM)
Method in brief: as §1

[4] = compound: CN(C)C[C@@H]1CCn2cc(c3ccccc32)C2=C(C(=O)NC2=O)c2cn(c3ccccc23)CCO1 [Ruboxistaurin] + CC(=O)c1c(C)c2cnc(Nc3ccc(N4CCNCC4)cn3)nc2n(C2CCCC2)c1=O [Palbociclib] (partner 0.5 µM)
Method in brief: as §1

[5] = compound: CN(C)C[C@@H]1CCn2cc(c3ccccc32)C2=C(C(=O)NC2=O)c2cn(c3ccccc23)CCO1 [Ruboxistaurin] + CC(=O)Nc1cccc(-n2c(=O)n(C3CC3)c(=O)c3c(Nc4ccc(I)cc4F)n(C)c(=O)c(C)c32)c1 [Trametinib] (partner 0.02 µM)
Method in brief: as §1

| Cell Line | relative viability ([1]; first compound 0.08 µM) | relative viability ([1]; first compound 0.8 µM) | relative viability ([1]; first compound 2.53 µM) | relative viability ([1]; first compound 8 µM) | relative viability ([2]; first compound 0.08 µM) | relative viability ([2]; first compound 0.8 µM) | relative viability ([2]; first compound 2.53 µM) | relative viability ([2]; first compound 8 µM) | relative viability ([3]; first compound 0.08 µM) | relative viability ([3]; first compound 0.8 µM) | relative viability ([3]; first compound 2.53 µM) | relative viability ([3]; first compound 8 µM) | relative viability ([4]; first compound 0.08 µM) | relative viability ([4]; first compound 0.8 µM) | relative viability ([4]; first compound 2.53 µM) | relative viability ([4]; first compound 8 µM) | relative viability ([5]; first compound 0.08 µM) | relative viability ([5]; first compound 0.8 µM) | relative viability ([5]; first compound 2.53 µM) | relative viability ([5]; first compound 8 µM) |
| --- | --- | --- | --- | --- | --- | --- | --- | --- | --- | --- | --- | --- | --- | --- | --- | --- | --- | --- | --- | --- |
| NCI-H1755 | 1.05 | 1 | 1.01 | 1.07 | 0.422 | 0.362 | 0.373 | 0.264 | 0.511 | 0.328 | 0.417 | 0.406 | 0.495 | 0.452 | 0.463 | 0.455 | 0.804 | 0.713 | 0.744 | 0.771 |
| NCI-H1792 | 0.903 | 0.892 | 0.916 | 0.933 | 0.258 | 0.231 | 0.246 | 0.233 | 0.431 | 0.317 | 0.375 | 0.32 | 0.632 | 0.617 | 0.645 | 0.669 | 0.646 | 0.336 | 0.446 | 0.41 |
| NCI-H1793 | 0.845 | 0.641 | 0.909 | 0.841 | 0.454 | 0.288 | 0.478 | 0.316 | 0.148 | 0.152 | 0.172 | 0.188 | 0.302 |  | 0.296 | 0.373 | 0.444 |  | 0.497 | 0.517 |
| NCI-H1915 | 1.02 | 0.918 | 0.891 | 0.967 | 0.978 | 0.839 | 0.924 | 0.845 | 0.765 | 0.638 | 0.72 | 0.565 | 0.542 | 0.482 | 0.536 | 0.421 | 0.324 | 0.292 | 0.303 | 0.285 |
| NCI-H1944 | 0.874 | 0.71 | 0.731 | 0.819 | 0.332 | 0.279 | 0.354 | 0.31 | 0.406 | 0.632 | 0.72 | 0.726 | 0.347 | 0.298 | 0.343 | 0.295 | 0.402 | 0.312 | 0.395 | 0.358 |
| NCI-H1975 | 0.93 | 0.821 | 0.906 | 0.826 | 0.302 | 0.235 | 0.252 | 0.211 | 0.266 | 0.0934 | 0.223 | 0.209 | 0.648 | 0.512 | 0.637 | 0.605 | 0.573 | 0.336 | 0.416 | 0.331 |
| NCI-H1993 | 0.837 | 0.789 | 0.848 | 0.808 | 0.828 | 0.742 | 0.763 | 0.697 | 1.06 | 0.599 | 0.926 | 0.887 | 0.716 | 0.666 | 0.712 | 0.556 | 0.486 | 0.43 | 0.51 | 0.467 |
| NCI-H2009 | 1.02 | 0.956 | 0.931 | 1.13 | 0.819 | 0.796 | 0.825 | 0.552 | 1.14 | 1.01 | 0.984 | 1.15 | 0.218 | 0.234 | 0.242 | 0.221 | 0.328 | 0.234 | 0.258 | 0.239 |
| NCI-H2023 | 0.862 | 0.679 | 0.913 | 0.628 | 0.243 | 0.179 | 0.194 | 0.156 | 0.679 | 0.426 | 0.668 | 0.344 | 0.381 | 0.31 | 0.333 | 0.393 | 0.668 | 0.491 | 0.47 | 0.405 |
| NCI-H2085 | 0.902 | 0.76 | 0.754 | 0.721 | 0.447 | 0.419 | 0.409 | 0.324 | 0.53 | 0.4 | 0.49 | 0.42 | 0.472 | 0.479 | 0.452 | 0.56 | 0.67 | 0.538 | 0.64 | 0.502 |
| NCI-H2087 | 0.952 | 1.02 | 1.25 | 1.1 | 0.908 | 0.68 | 0.837 | 0.57 | 0.175 | 0.215 | 0.162 | 0.156 | 0.28 | 0.253 | 0.285 | 0.291 | 0.202 | 0.135 | 0.205 | 0.186 |
| NCI-H2126 | 0.751 | 0.703 | 0.774 | 0.73 | 0.533 | 0.447 | 0.541 | 0.463 | 0.961 | 0.893 | 0.983 | 0.893 | 0.341 | 0.384 | 0.367 | 0.395 | 0.617 | 0.552 | 0.617 | 0.541 |
| NCI-H2170 | 0.243 | 0.241 | 0.263 | 0.251 | 0.301 | 0.256 | 0.322 | 0.253 | 0.779 | 0.649 | 0.758 | 0.522 | 0.397 | 0.337 | 0.371 | 0.386 | 0.932 | 0.828 | 0.931 | 0.928 |
| NCI-H2228 | 1.51 | 1.1 | 1.14 | 0.911 | 0.431 | 0.358 | 0.345 | 0.335 | 0.173 | 0.172 | 0.125 | 0.111 | 0.845 | 0.631 | 0.863 | 0.693 | 0.517 | 0.379 | 0.525 | 0.368 |
| NCI-H2347 | 1.02 | 0.829 | 0.934 | 0.979 | 0.739 | 0.772 | 0.714 | 0.519 | 0.568 | 0.373 | 0.289 | 0.297 | 0.441 | 0.425 | 0.358 | 0.42 | 0.306 | 0.293 | 0.256 | 0.167 |
| NCI-H2405 | 1.3 | 1.01 | 1.19 | 1.05 | 0.561 | 0.411 | 0.478 | 0.33 | 0.818 | 0.606 | 0.804 | 0.699 | 0.545 | 0.538 | 0.522 | 0.486 | 0.727 | 0.597 | 0.727 | 0.616 |

From the supplement of paper PMC10307832
